Reference: patent US8012975B2, “Antitumoral analogs of ET-743” (Pharma Mar, S.A., priority 2000, dated 2011)
pIC50: −log10 of the molar value. Where two headings read alike, the source gives them in different places.

Columns and labels:
A549 [1] = tested on: A549
NCI-H187 [2] = tested on: NCI-H187
LNCAP = assay: Cytotoxic activity (M) panel, Prostate LNCAP; settings: Homo sapiens, read-out: CYTOTOXIC ACTIVITY (M) LNCAP
Y-79 [3] = tested on: Y-79
CHSA = assay: Cytotoxic activity (M) panel, Chondrosarcoma CHSA; settings: read-out: CYTOTOXIC ACTIVITY (M) CHSA
MX-1 [4] = tested on: MX-1
FADU = assay: Cytotoxic activity (M) panel, Pharnynx FADU; settings: Homo sapiens, read-out: CYTOTOXIC ACTIVITY (M) FADU
SW-694 = assay: Cytotoxic activity (M) panel, Fibrosarcoma SW-694; settings: read-out: CYTOTOXIC ACTIVITY (M) SW-694
SK-HEP-1 [5] = assay: Cytotoxic activity (M) panel, Liver SK-HEP-1; settings: Homo sapiens, SK-HEP1, read-out: CYTOTOXIC ACTIVITY (M) SK-HEP-1
SK-OV-3 = assay: Cytotoxic activity (M) panel, Ovary SK-OV-3; settings: Homo sapiens, SK-OV-3, read-out: CYTOTOXIC ACTIVITY (M) SK-OV-3
OSA-FH = assay: Cytotoxic activity (M) panel, Osteosarcoma OSA-FH; settings: read-out: CYTOTOXIC ACTIVITY (M) OSA-FH
Hs746t = assay: Cytotoxic activity (M) panel, Gastric Hs746t; settings: Homo sapiens, read-out: CYTOTOXIC ACTIVITY (M) Hs746t
PANC-1 = assay: Cytotoxic activity (M) panel, Pancreas PANC-1; settings: Homo sapiens, PANC-1, read-out: CYTOTOXIC ACTIVITY (M) PANC-1
HT-29 = assay: Cytotoxic activity (M) panel, Colon HT-29; settings: Homo sapiens, HT-29, read-out: CYTOTOXIC ACTIVITY (M) HT-29
MEL-28 = assay: Cytotoxic activity (M) panel, Melanoma Mel-28; settings: Homo sapiens, SK-MEL-28, read-out: CYTOTOXIC ACTIVITY (M) Mel-28
5637 = assay: Cytotoxic activity (M) panel, Bladder 5637; settings: read-out: CYTOTOXIC ACTIVITY (M) 5637
DU-145 = assay: Cytotoxic activity (M) panel, Prostate DU-145; settings: Homo sapiens, DU-145, read-out: CYTOTOXIC ACTIVITY (M) DU-145
786-O = assay: Cytotoxic activity (M) panel, Renal 786-O; settings: Homo sapiens, 786-0, read-out: CYTOTOXIC ACTIVITY (M) 786-O
Y-79 [6] = assay: Cytotoxic activity (M) panel, Retinoblastoma Y-79; settings: Homo sapiens, Y79, read-out: CYTOTOXIC ACTIVITY (M) Y-79
NCI-H187 [7] = assay: Cytotoxic activity (M) panel, SCL NCI-H187; settings: Homo sapiens, NCI-H187, read-out: CYTOTOXIC ACTIVITY (M) NCI-H187
MX-1 [8] = assay: Cytotoxic activity (M) panel, Breast MX-1; settings: Homo sapiens, MX1, read-out: CYTOTOXIC ACTIVITY (M) MX-1
PC3 [9] = tested on: PC3
SK-HEP-1 [10] = tested on: SK-HEP-1
PC3 [11] = assay: Cytotoxic activity (M) panel, Prostate PC3; settings: Homo sapiens, PC-3, read-out: CYTOTOXIC ACTIVITY (M) PC3
A549 [12] = assay: Cytotoxic activity (M) panel, NSCL A549; settings: Homo sapiens, A549, read-out: CYTOTOXIC ACTIVITY (M) A549

COc1c(C)cc2c(c1O)[C@@H]1C3Cc4c(OC(C)=O)c(C)c5c(c4[C@H](COC(=O)/C=C/c4ccccc4)N3[C@@H](O)[C@H](C2)N1C)OCO5 (stereo partly shown) [drawing 234]
CYTOTOXIC ACTIVITY (M) A549 (A549 [1]): 1.56 to 05 M | pIC50 (NCI-H187 [2]): 13.11 | IC50 (LNCAP): 6.83e-08 M | pIC50 (Y-79 [3]): 13.11 | IC50 (CHSA): 4.49e-08 M | pIC50 (MX-1 [4]): 12.14 | IC50 (FADU): 2.46e-08 M | IC50 (SW-694): 6.69e-06 M | IC50 (SK-HEP-1 [5]): 1.94e-09 M | IC50 (SK-OV-3): 7.78e-08 M | IC50 (OSA-FH): 5.26e-07 M | IC50 (Hs746t): 1.24e-09 M | IC50 (PANC-1): 9.47e-09 M | IC50 (HT-29): 2.96e-07 M | IC50 (MEL-28): 5.89e-08 M | IC50 5637: 1.71e-08 M | IC50 (DU-145): 1.56e-06 M | IC50 (786-O): 5.26e-12 M

CCCC(=O)NC[C@H]1c2c(c(OC(C)=O)c(C)c3c2OCO3)CC2[C@H]3c4c(cc(C)c(OC)c4O)C[C@@H]([C@H](O)N21)N3C (stereo partly shown) [drawing 225]
IC50 (Y-79 [6]): 3.14e-09 M | IC50 (LNCAP): 5.39e-09 M | IC50 (NCI-H187 [7]): 3.98e-11 M | IC50 (CHSA): 1.73e-08 M | IC50 (MX-1 [8]): 2.5e-06 M | IC50 (FADU): 7.94e-09 M | IC50 (SK-HEP-1 [5]): 5.07e-09 M | IC50 (SK-OV-3): 2.21e-07 M | IC50 (OSA-FH): 8.56e-08 M | IC50 (Hs746t): 2.97e-08 M | IC50 (PANC-1): 2.9e-09 M | IC50 (MEL-28): 3.05e-08 M | CYTOTOXIC ACTIVITY (M) PC3 (PC3 [9]): 1.46-08 M | IC50 5637: 2.81e-09 M | IC50 (786-O): 6.55e-09 M

COc1c(C)cc2c(c1O)[C@@H]1C3Cc4c(OC(C)=O)c(C)c5c(c4[C@H](COC(=O)/C=C/c4cccc(C(F)(F)F)c4)N3[C@@H](O)[C@H](C2)N1C)OCO5 (stereo partly shown) [drawing 233]
IC50 (Y-79 [6]): 8.85e-10 M | IC50 (LNCAP): 5.98e-07 M | IC50 (NCI-H187 [7]): 8.02e-10 M | IC50 (CHSA): 2.53e-08 M | IC50 (MX-1 [8]): 2.81e-08 M | IC50 (FADU): 4.59e-07 M | IC50 (SW-694): 3.38e-06 M | IC50 (SK-OV-3): 7.03e-06 M | IC50 (OSA-FH): 6.34e-08 M | IC50 (Hs746t): 3.57e-08 M | IC50 (PANC-1): 1.03e-08 M | IC50 (HT-29): 4.08e-07 M | IC50 (MEL-28): 1.76e-08 M | CYTOTOXIC ACTIVITY (M) SK-HEP-1 (SK-HEP-1 [10]): 1.63 to 08 M | IC50 (PC3 [11]): 7.88e-08 M | IC50 5637: 1.14e-08 M | IC50 (DU-145): 7.03e-08 M | IC50 (786-O): 1.46e-08 M | IC50 (A549 [12]): 2.81e-06 M
